# Values joined by “and” are separate entries in the source; they are usually repeats but may differ in a detail not shown here. Equal entries are not always repeated. Toxic doses and inconclusive results are not listed.
# System: BDF1 mice, B16 melanoma ip, median survival T/C
# Assay: NCI In Vivo Anticancer Drug Screen. Data for tumor model B16 Melanoma (intraperitoneal) in B6D2F1 (BDF1) mice
# Settings: endpoint: median survival time, higher = longer survival
# Summary of the method: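 Each result divides a survival or tumor-size measurement in the compound-treated group by the same measurement in the vehicle group.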
# [1] = dose: 25.0 mg/kg/injection, schedule: Q01DX009 (ip), vehicle: Klucel (hydroxypropylcellulose) (HPC)
# [2] = dose: 50.0 mg/kg/injection, schedule: Q01DX009 (ip), vehicle: Klucel (hydroxypropylcellulose) (HPC)
# [3] = dose: 100.0 mg/kg/injection, schedule: Q01DX009 (ip), vehicle: Klucel (hydroxypropylcellulose) (HPC)
# [4] = dose: 100.0 mg/kg/injection, schedule: Q04DX003 (ip), vehicle: Klucel (hydroxypropylcellulose) (HPC)
# [5] = dose: 200.0 mg/kg/injection, schedule: Q04DX003 (ip), vehicle: Klucel (hydroxypropylcellulose) (HPC)
# [6] = dose: 400.0 mg/kg/injection, schedule: Q04DX003 (ip), vehicle: Klucel (hydroxypropylcellulose) (HPC)
# [7] = dose: 12.5 mg/kg/injection, schedule: Q01DX009 (ip), vehicle: saline with Tween-80
# [8] = dose: 25.0 mg/kg/injection, schedule: Q01DX009 (ip), vehicle: saline with Tween-80
# [9] = dose: 50.0 mg/kg/injection, schedule: Q01DX009 (ip), vehicle: saline with Tween-80
# [10] = dose: 12.5 mg/kg/injection, schedule: Q01DX009 (ip), vehicle: Klucel (hydroxypropylcellulose) (HPC)
# [11] = dose: 200.0 mg/kg/injection, schedule: Q01DX009 (ip), vehicle: saline
# [12] = dose: 400.0 mg/kg/injection, schedule: Q01DX009 (ip), vehicle: saline
# [13] = dose: 6.25 mg/kg/injection, schedule: Q01DX009 (ip), vehicle: Klucel (hydroxypropylcellulose) (HPC)
# [14] = dose: 200.0 mg/kg/injection, schedule: Q01DX009 (ip), vehicle: Klucel (hydroxypropylcellulose) (HPC)
# [15] = dose: 400.0 mg/kg/injection, schedule: Q01DX009 (ip), vehicle: Klucel (hydroxypropylcellulose) (HPC)
smiles,measurement,setting,value
CCCCCCCCCCCCCCCC(=O)N(CCC#N)C(C)(C)CCC(C)(C)N(CCC#N)C(=O)CCCCCCCCCCCCCCC,T/C,[1],90 % of control
same,T/C,[2],98 % of control
same,T/C,[3],91 % of control
COC(=O)[C@H]1[C@H]2C[C@@H]3c4[nH]c5cc(OC)ccc5c4CCN3C[C@H]2C[C@@H](OC(=O)c2cc(OC)c(OC)c(OC)c2)[C@@H]1OC,T/C,"dose: 0.04 mg/kg/injection, schedule: Q01DX009 (ip), vehicle: saline",91 % of control
same,T/C,"dose: 0.09 mg/kg/injection, schedule: Q01DX009 (ip), vehicle: saline",91 % of control
same,T/C,"dose: 0.19 mg/kg/injection, schedule: Q01DX009 (ip), vehicle: saline",90 % of control
same,T/C,"dose: 0.39 mg/kg/injection, schedule: Q01DX009 (ip), vehicle: saline",91 % of control
same,T/C,"dose: 0.78 mg/kg/injection, schedule: Q01DX009 (ip), vehicle: saline",88 % of control
CCCCNC(C)(C)C(SSSC(c1ccco1)C(C)(C)NCCCC)c1ccco1 (stereo not given),T/C,"dose: 3.13 mg/kg/injection, schedule: Q01DX009 (ip), vehicle: carboxymethylcellulose (CMC)",102 % of control
same,T/C,"dose: 6.25 mg/kg/injection, schedule: Q01DX009 (ip), vehicle: carboxymethylcellulose (CMC)",102 % of control
same,T/C,"dose: 12.5 mg/kg/injection, schedule: Q01DX009 (ip), vehicle: carboxymethylcellulose (CMC)",95 % of control
same,T/C,[1],91 % of control
same,T/C,"dose: 25.0 mg/kg/injection, schedule: Q01DX009 (ip), vehicle: carboxymethylcellulose (CMC)",86 % of control
CC(=O)Nc1ccc2c(Nc3ccc(NS(C)(=O)=O)cc3)c3ccccc3nc2c1,T/C,"dose: 3.8 mg/kg/injection, schedule: Q01DX009 (ip), vehicle: saline sonified",112 % of control
same,T/C,"dose: 7.5 mg/kg/injection, schedule: Q01DX009 (ip), vehicle: saline sonified",110 % of control
same,T/C,"dose: 15.0 mg/kg/injection, schedule: Q01DX009 (ip), vehicle: saline with Tween-80",162 % of control
same,T/C,"dose: 30.0 mg/kg/injection, schedule: Q01DX009 (ip), vehicle: saline sonified",164 % of control
same,T/C,"dose: 30.0 mg/kg/injection, schedule: Q01DX009 (ip), vehicle: saline with Tween-80",185 % of control
same,T/C,"dose: 200.0 mg/kg/injection, schedule: Q01DX001 (ip), vehicle: saline sonified",155 % of control
same,T/C,"dose: 400.0 mg/kg/injection, schedule: Q01DX001 (ip), vehicle: saline sonified",194 % of control
CCCc1c(C)[nH]c2ccccc12,T/C,[4],94 % of control
same,T/C,[5],100 % of control
same,T/C,[6],88 % of control
CCN(C)N=Nc1ccc(C(N)=O)cc1,T/C,[1],104 % of control
same,T/C,[2],112 % of control
Cc1ccc[n+](CCc2c[nH]c3ccccc23)c1,T/C,[7],111 % of control
same,T/C,[8],99 % of control
same,T/C,[9],95 % of control
CCC(C)C(C(=O)OCCN(CC)CC)c1ccccc1 (stereo not given),T/C,[10],90 % of control
same,T/C,[1],96 % of control
same,T/C,[2],90 % of control and 93 % of control
O=C1NC(=O)c2ccccc21,T/C,[11],97 % of control
same,T/C,[12],95 % of control
Cc1ccc(OC(=O)/C=C/C(=O)Oc2ccc(C)cc2)cc1,T/C,"dose: 75.0 mg/kg/injection, schedule: Q04DX003 (ip), vehicle: Klucel (hydroxypropylcellulose) (HPC)",89 % of control
same,T/C,"dose: 150.0 mg/kg/injection, schedule: Q04DX003 (ip), vehicle: Klucel (hydroxypropylcellulose) (HPC)",94 % of control
same,T/C,"dose: 300.0 mg/kg/injection, schedule: Q04DX003 (ip), vehicle: Klucel (hydroxypropylcellulose) (HPC)",100 % of control
O=[N+]([O-])/C=C/c1ccc([N+](=O)[O-])cc1Cl,T/C,"dose: 0.18 mg/kg/injection, schedule: Q01DX009 (ip), vehicle: Klucel (hydroxypropylcellulose) (HPC)",111 % of control
same,T/C,"dose: 0.37 mg/kg/injection, schedule: Q01DX009 (ip), vehicle: Klucel (hydroxypropylcellulose) (HPC)",96 % of control
same,T/C,"dose: 0.75 mg/kg/injection, schedule: Q01DX009 (ip), vehicle: Klucel (hydroxypropylcellulose) (HPC)",87 % of control and 90 % of control
O=S(=O)(c1ccc(Cl)cc1)c1ccc(Cl)cc1,T/C,"dose: 100.0 mg/kg/injection, schedule: Q04DX003 (ip), vehicle: saline with Tween-80",100 % of control
same,T/C,"dose: 200.0 mg/kg/injection, schedule: Q04DX003 (ip), vehicle: saline with Tween-80",97 % of control
same,T/C,"dose: 400.0 mg/kg/injection, schedule: Q04DX003 (ip), vehicle: saline with Tween-80",100 % of control
OCCOCC(F)(F)F,T/C,"dose: 6.25 mg/kg/injection, schedule: Q01DX009 (ip), vehicle: saline with Tween-80",94 % of control and 112 % of control
same,T/C,[7],99 % of control and 104 % of control
same,T/C,[8],97 % of control and 103 % of control
same,T/C,[9],92 % of control and 105 % of control
same,T/C,"dose: 75.0 mg/kg/injection, schedule: Q01DX009 (ip), vehicle: saline with Tween-80",93 % of control
same,T/C,"dose: 100.0 mg/kg/injection, schedule: Q01DX009 (ip), vehicle: saline with Tween-80",102 % of control and 103 % of control
same,T/C,"dose: 150.0 mg/kg/injection, schedule: Q01DX009 (ip), vehicle: saline with Tween-80",88 % of control
same,T/C,"dose: 200.0 mg/kg/injection, schedule: Q01DX009 (ip), vehicle: saline with Tween-80",94 % of control and 105 % of control
CCCCCCCCC(=O)N(C)OC,T/C,"dose: 3.13 mg/kg/injection, schedule: Q04DX003 (ip), vehicle: saline",107 % of control
same,T/C,"dose: 6.25 mg/kg/injection, schedule: Q04DX003 (ip), vehicle: saline",121 % of control
same,T/C,"dose: 12.5 mg/kg/injection, schedule: Q04DX003 (ip), vehicle: saline",105 % of control
O=C1CN=C(c2ccccc2)c2cc(Cl)ccc2N1,T/C,[13],102 % of control
same,T/C,[10],90 % of control
same,T/C,[1],90 % of control
OC(CC(O)(C(F)(F)F)C(F)(F)F)c1cccc(Cl)c1 (stereo not given),T/C,"dose: 50.0 mg/kg/injection, schedule: Q04DX003 (ip), vehicle: gum acacia",105 % of control
same,T/C,"dose: 100.0 mg/kg/injection, schedule: Q04DX003 (ip), vehicle: gum acacia",90 % of control
same,T/C,"dose: 200.0 mg/kg/injection, schedule: Q04DX003 (ip), vehicle: gum acacia",90 % of control
Nc1nc(=S)c2[nH]c(N=Nc3ccc(S(=O)(=O)Nc4ncccn4)cc3)nc2[nH]1,T/C,"dose: 1.56 mg/kg/injection, schedule: Q01DX009 (ip), vehicle: Klucel (hydroxypropylcellulose) (HPC)",95 % of control
same,T/C,"dose: 3.12 mg/kg/injection, schedule: Q01DX009 (ip), vehicle: Klucel (hydroxypropylcellulose) (HPC)",102 % of control
same,T/C,[13],113 % of control
same,T/C,[10],102 % of control
COc1cc2c[n+](C)c3c4cc5c(cc4ccc3c2cc1OC)OCO5 (tested in a mixture with another compound),T/C,"dose: 0.78 mg/kg/injection, schedule: Q01DX009 (ip), vehicle: distilled water + Tween-80",105 % of control
same,T/C,"dose: 1.56 mg/kg/injection, schedule: Q01DX009 (ip), vehicle: distilled water + Tween-80",97 % of control
same,T/C,"dose: 3.13 mg/kg/injection, schedule: Q01DX009 (ip), vehicle: distilled water + Tween-80",118 % of control
same,T/C,"dose: 5.0 mg/kg/injection, schedule: Q01DX009 (ip), vehicle: saline",116 % of control
same,T/C,[13],110 % of control
same,T/C,[10],124 % of control
same,T/C,[1],114 % of control
same,T/C,"dose: 40.0 mg/kg/injection, schedule: Q01DX009 (ip), vehicle: saline",159 % of control
same,T/C,[2],92 % of control
same,T/C,"dose: 80.0 mg/kg/injection, schedule: Q01DX009 (ip), vehicle: saline",98 % of control
Cc1cc(Cl)ccc1NS(=O)(=O)c1ccccc1,T/C,[3],88 % of control
same,T/C,[14],88 % of control
CC(=O)CC(=O)Nc1ccc(-c2ccc(NC(=O)CC(C)=O)c(Cl)c2)cc1Cl,T/C,[3],87 % of control
same,T/C,[14],87 % of control
CCCCC(CC)COC(=O)/C=C/C(=O)OCC(CC)CCCC (stereo not given),T/C,[14],90 % of control
same,T/C,[15],87 % of control
Cc1cc(NS(=O)(=O)c2ccc(N)cc2)no1,T/C,[4],97 % of control
same,T/C,[5],97 % of control
same,T/C,[6],93 % of control
c1ccc2cc3c(cc2c1)Cn1c-3nc2ccccc21,T/C,"dose: 178.0 mg/kg/injection, schedule: Q01DX009 (ip), vehicle: saline with Tween-80",101 % of control
same,T/C,[11],124 % of control
same,T/C,"dose: 266.0 mg/kg/injection, schedule: Q01DX009 (ip), vehicle: saline with Tween-80",100 % of control
same,T/C,"dose: 400.0 mg/kg/injection, schedule: Q01DX009 (ip), vehicle: saline with Tween-80",90 % of control
same,T/C,[12],110 % of control
COc1ccc(NCc2ccc(C)cc2)cc1,T/C,[3],91 % of control
same,T/C,[14],94 % of control
same,T/C,[15],91 % of control
